Test results taken from patent publication US20060106038A1, “Methods for treating and/or preventing aberrant proliferation of hematopoietic cells” (ICOS CORPORATION, priority 2004, published 2006).
Where two headings read alike, the source gives them in different places.

Assays:
[1] = test system: myeloid and erythroid colony formation; test: Methylcellulose clonogenic assay; type: cell-based; settings: PI3Kδ selective inhibitor at 10 μM
[2] = test system: AML cells; test: Cell proliferation assay, [3H]-Thymidine incorporation, AML cells; type: cell-based; settings: Homo sapiens, 48 h, PI3Kδ selective inhibitor 10 μM, rapamycin 50 ng/ml
Method: Cell proliferation assays were conducted to determine whether PI3K inhibition contributes to AML cell viability. In most PI3K-positive samples tested, the mTOR pathway was activated as assessed by phosphorylation of P70S6K protein on Threonine 389. Thus, proliferation assays were also conducted to determine whether mTOR contributes to AML cell viability. Accordingly, proliferation assays were performed on AML cells with or without the following inhibitor compounds: LY294002, a PI3Kδ selective inhibitor, rapamycin, or a combination of the PI3Kδ selective inhibitor and rapamycin. Cell proliferation was determined by measuring DNA synthesis by [3H]-Thymidine incorporation. Comparative experiments were performed on CD34+ cord blood cells.
For AML cells (obtained as previously described in Example 1), BMMCs were cultured at 3×10^5/ml in alpha medium containing 5% fetal calf serum (FCS) without cytokines for 48 hours, with or without the following inhibitors: LY294002 at 25 μM, PI3Kδ selective inhibitor at 10 μM, rapamycin at 50 ng/ml, or an association of a PI3Kδ selective inhibitor and rapamycin, and incubated in 96-well plates in triplicate. [^3H]-Thymidine was added for a final 6 hour pulse, and the amount of radioactivity incorporated in cells was determined by trichloracetic acid (TCA) precipitation. […] DNA synthesis was measured by [^3H]-Thymidine incorporation after […].

Compound | inhibition at 10 µM [1] [%] | inhibition at 10 µM ([2]; PI3K-positive AML samples, read-out: inhibition of proliferation of leukemic cells) [%] | inhibition at 10 µM ([2]; representative PI3K-negative AML cell sample, read-out: inhibition of proliferation of leukemic cells (mean values)) [%]
O=c1cc(N2CCOCC2)oc2c(-c3ccccc3)cccc12 [LY294002] | 95 | – | –
CO[C@H]1C[C@@H]2CC[C@@H](C)[C@@](O)(O2)C(=O)C(=O)N2CCCC[C@H]2C(=O)O[C@H]([C@H](C)C[C@@H]2CC[C@@H](O)[C@H](OC)C2)CC(=O)[C@H](C)/C=C(\C)[C@@H](O)[C@@H](OC)C(=O)[C@H](C)C[C@H](C)/C=C/C=C/C=C/1C [rapamycin] | – | 64 | 29
